Laboratory results from patent US9113629B2, “4-amino-6-(4-substituted-phenyl)-picolinates and 6-amino-2-(4-substituted-phenyl)-pyrimidine-4-carboxylates and their use as herbicides” (DOW AGROSCIENCES LLC, priority 2013, dated 2015).
Where two headings read alike, the source gives them in different places.

How the values were obtained:
[1] = test system: Key Broadleaf Weed and Crop Species; assay: Post-emergent Test II herbicidal activity (Table 5); assay type: in vivo; conditions: post-emergence, 336 h, 14 days after application; for pest or weed control at 70 g/ha: application rate 70 g ai/ha
Procedure: (§1) Post-emergent Test II: Seeds or nutlets of the desired test plant species were planted in Sun Gro Metro-Mix® 360 planting mixture, which typically has a pH of 6.0 to 6.8 and an organic matter content of about 30 percent, in plastic pots with a surface area of 64 square centimeters. When required to ensure good germination and healthy plants, a fungicide treatment and/or other chemical or physical treatment was applied. The plants were grown for 7-21 d in a greenhouse with an approximate 15 h photoperiod which was maintained at about 23-29° C. during the day and 22-28° C. during the night. Nutrients and water were added on a regular basis and supplemental lighting was provided with overhead metal halide 1000-Watt lamps as necessary. The plants were employed for testing when they reached the first or second true leaf stage.
(§2) A weighed amount, determined by the highest rate to be tested, of each test compound was placed in a 25 mL glass vial and was dissolved in 4 mL of a 97:3 v/v mixture of acetone and DMSO to obtain concentrated stock solutions. […] The concentrated stock solutions obtained were diluted with 20 mL of an aqueous mixture containing acetone, water, isopropyl alcohol, DMSO. Atplus 411F crop oil concentrate, and Triton® X-155 surfactant in a 48.5:39:10:1.5:1.0:0.02 v/v ratio to obtain spray solutions containing the highest application rates. Additional application rates were obtained by serial dilution of 12 mL of the high rate solution into a solution containing 2 mL of 97:3 v/v mixture of acetone and DMSO and 10 mL of an aqueous mixture containing acetone, water, isopropyl alcohol, DMSO, Atplus 411F crop oil concentrate, and Triton X-155 surfactant in a 48.5:39:10:1.5:1.0:0.02 v/v ratio to obtain ½×, ¼×, ⅛× and 1/16× rates of the high rate. Compound requirements are based upon a 12 mL application volume at a rate of 187 liters per hectare (L/ha). Formulated compounds were applied to the plant material with an overhead Mandel track sprayer equipped with 8002E nozzles calibrated to deliver 187 L/ha over an application area of 0.503 square meters at a spray height of 18 inches (43 cm) above the average plant canopy height. Control plants were sprayed in the same manner with the solvent blank.
(§3) The treated plants and control plants were placed in a greenhouse as described above and watered by subirrigation to prevent wash-off of the test compounds. After 14 d, the condition of the test plants as compared with that of the untreated plants was determined visually and scored on a scale of 0 to 100 percent where 0 corresponds to no injury and 100 corresponds to complete kill.

[2] = test system: Key Grass and Sedge Weeds as well as Grass Crops; assay: Post-emergent Test II herbicidal activity (Table 6); assay type: in vivo; conditions: post-emergence, 336 h; for pest or weed control at 70 g/ha: application rate 70 g ai/ha; for pest or weed control at 140 g/ha: application rate 140 g ai/ha
Procedure: as §1, §2, §3

[3] = ABUTH: velvetleaf (Abutilon theophrasti), read-out: Visual Growth Reduction (%) 14 Days After Application, ABUTH
[4] = AMARE: redroot pigweed (Amaranthus retroflexus), read-out: Visual Growth Reduction (%) 14 Days After Application, AMARE
[5] = BRSNN: oilseed-rape, canola (Brassica napus), read-out: Visual Growth Reduction (%) 14 Days After Application, BRSNN
[6] = CHEAL: lambsquarters (Chenopodium album), read-out: Visual Growth Reduction (%) 14 Days After Application, CHEAL
[7] = EPHHL: wild poinsettia (Euphorbia heterophylla), read-out: Visual Growth Reduction (%) 14 Days After Application, EPHHL
[8] = HELAN: sunflower (Helianthus annuus), read-out: Visual Growth Reduction (%) 14 Days After Application, HELAN
[9] = VIOTR: wild pansy (Viola tricolor), read-out: Visual Growth Reduction (%) 14 Days After Application, VIOTR
[10] = Triticum aestivum, TRZSS (wheat), read-out: Visual Growth Reduction (%) 14 Days After Application, TRZSS
[11] = DIGSA: crabgrass (Digitaria sanguinalis), read-out: Visual Growth Reduction (%) 14 Days After Application, DIGSA
[12] = ECHCG: barnyardgrass (Echinochloa crus-galli), read-out: Visual Growth Reduction (%) 14 Days After Application, ECHCG
[13] = ORYSA: rice (Oryza sativa), read-out: Visual Growth Reduction (%) 14 Days After Application, ORYSA
[14] = SETFA: giant foxtail (Setaria faberi), read-out: Visual Growth Reduction (%) 14 Days After Application, SETFA
[15] = SORVU: grain sorghum (Sorghum vulgare), read-out: Visual Growth Reduction (%) 14 Days After Application, SORVU
[16] = ZEAMX: maize, corn (Zea mays), read-out: Visual Growth Reduction (%) 14 Days After Application, ZEAMX

| SMILES | pest or weed control at 70 g/ha [1, 3] | pest or weed control at 70 g/ha [1, 4] | pest or weed control at 70 g/ha [1, 5] | pest or weed control at 70 g/ha [1, 6] | pest or weed control at 70 g/ha [1, 7] | pest or weed control at 70 g/ha [1, 8] | pest or weed control at 70 g/ha [1, 9] | pest or weed control at 70 g/ha [2, 10] | pest or weed control at 140 g/ha [2, 10] | pest or weed control at 70 g/ha [2, 11] | pest or weed control at 140 g/ha [2, 11] | pest or weed control at 70 g/ha [2, 12] | pest or weed control at 140 g/ha [2, 12] | pest or weed control at 70 g/ha [2, 13] | pest or weed control at 140 g/ha [2, 13] | pest or weed control at 140 g/ha [2, 14] | pest or weed control at 70 g/ha [2, 15] | pest or weed control at 140 g/ha [2, 15] | pest or weed control at 70 g/ha [2, 16] | pest or weed control at 140 g/ha [2, 16] | further results |
| --- | --- | --- | --- | --- | --- | --- | --- | --- | --- | --- | --- | --- | --- | --- | --- | --- | --- | --- | --- | --- | --- |
| COC(=O)c1nc(-c2ccc(C(F)(F)F)c(F)c2)nc(N)c1OC [Compound 26, methyl 6-amino-2-(3-fluoro-4-(trifluoromethyl)phenyl)-5-methoxypyrimidine-4-carboxylate] | 85 to 94% | 60 to 74% | 30 to 44% | 0 to 29% | 95 to 100% | 85 to 94% | 0 to 29% | 45 to 59% | 45 to 59% | 0 to 29% | 0 to 29% | 0 to 29% | 0 to 29% | 0 to 29% | 0 to 29% | 0 to 29% | 0 to 29% | 0 to 29% | 0 to 29% | 45 to 59% | pest or weed control at 140 g/ha ([1]; ABUTH: velvetleaf (Abutilon theophrasti), application rate 140 g ai/ha, read-out: Visual Growth Reduction (%) 14 Days After Application, ABUTH): 85 to 94%; pest or weed control at 140 g/ha ([1]; AMARE: redroot pigweed (Amaranthus retroflexus), application rate 140 g ai/ha, read-out: Visual Growth Reduction (%) 14 Days After Application, AMARE): 75 to 84%; pest or weed control at 140 g/ha ([1]; BRSNN: oilseed-rape, canola (Brassica napus), application rate 140 g ai/ha, read-out: Visual Growth Reduction (%) 14 Days After Application, BRSNN): 30 to 44%; pest or weed control at 140 g/ha ([1]; CHEAL: lambsquarters (Chenopodium album), application rate 140 g ai/ha, read-out: Visual Growth Reduction (%) 14 Days After Application, CHEAL): 0 to 29%; pest or weed control at 140 g/ha ([1]; EPHHL: wild poinsettia (Euphorbia heterophylla), application rate 140 g ai/ha, read-out: Visual Growth Reduction (%) 14 Days After Application, EPHHL): 95 to 100%; pest or weed control at 140 g/ha ([1]; HELAN: sunflower (Helianthus annuus), application rate 140 g ai/ha, read-out: Visual Growth Reduction (%) 14 Days After Application, HELAN): 85 to 94%; pest or weed control at 140 g/ha ([1]; VIOTR: wild pansy (Viola tricolor), application rate 140 g ai/ha, read-out: Visual Growth Reduction (%) 14 Days After Application, VIOTR): 0 to 29%; pest or weed control at 70 g/ha [2, 14]: 0 to 29% |
| COc1c(N)nc(-c2ccc(C(F)(F)F)c(F)c2)nc1C(=O)O [Compound 63] | 60 to 74% | 60 to 74% | 75 to 84% | 85 to 94% | 95 to 100% | 85 to 94% | 75 to 84% | 60 to 74% | 60 to 74% | 60 to 74% | 60 to 74% | 75 to 84% | 95 to 100% | 0 to 29% | 0 to 29% | 95 to 100% | 0 to 29% | 30 to 44% | 60 to 74% | 60 to 74% | pest or weed control at 140 g/ha ([1]; ABUTH: velvetleaf (Abutilon theophrasti), 140 g ai/ha, post-emergent, read-out: Visual Growth Reduction (%) 14 Days After Application ABUTH): 85 to 94%; pest or weed control at 140 g/ha ([1]; AMARE: redroot pigweed (Amaranthus retroflexus), 140 g ai/ha, post-emergent, read-out: Visual Growth Reduction (%) 14 Days After Application AMARE): 75 to 84%; pest or weed control at 140 g/ha ([1]; BRSNN: oilseed-rape, canola (Brassica napus), 140 g ai/ha, post-emergent, read-out: Visual Growth Reduction (%) 14 Days After Application BRSNN): 85 to 94%; pest or weed control at 140 g/ha ([1]; CHEAL: lambsquarters (Chenopodium album), 140 g ai/ha, post-emergent, read-out: Visual Growth Reduction (%) 14 Days After Application CHEAL): 95 to 100%; pest or weed control at 140 g/ha ([1]; EPHHL: wild poinsettia (Euphorbia heterophylla), 140 g ai/ha, post-emergent, read-out: Visual Growth Reduction (%) 14 Days After Application EPHHL): 95 to 100%; pest or weed control at 140 g/ha ([1]; HELAN: sunflower (Helianthus annuus), 140 g ai/ha, post-emergent, read-out: Visual Growth Reduction (%) 14 Days After Application HELAN): 85 to 94%; pest or weed control at 140 g/ha ([1]; VIOTR: wild pansy (Viola tricolor), 140 g ai/ha, post-emergent, read-out: Visual Growth Reduction (%) 14 Days After Application VIOTR): 95 to 100% |
